# Laboratory results taken from ChEMBL document CHEMBL3507680, “University of Dundee, Gates Library screen for HepG2 cell viability”.
# Assay: Human HepG2 cell viability assay in 384 well format
# Type: toxicity, cell-based
# Design: dose 125 nL, time 70.5 hour; cytotoxicity at 70.5 h: concentration not given beside the values
# Settings: HepG2 cells, read-out: Inhibition
row,SMILES,cytotoxicity at 70.5 h [%]
1,Cc1ccc(F)c(S(=O)(=O)NCc2cccc(C(=O)N3CCCC3)c2)c1,16.3
2,Cc1ccc(NC2CCN(C(=O)c3cccc4c3ccn4C)CC2)nn1,-3.5
3,CCN1C(=O)CC[C@]12CC[C@@H](NC(=O)c1cc(C)on1)CC2,-7.54
4,Cn1ccnc1C1CCN(S(=O)(=O)c2ccc3c(c2)OCCO3)CC1,9.02
5,CCOc1ncccc1NC(=O)NC1CCN(c2ncccn2)CC1,2.59
6,COc1ccc(-c2n[nH]cc2CN(C)Cc2nonc2C)c(F)c1,-3.77
7,CCn1ncc(Nc2[nH]cnc3nc(C)nc2-3)c1C,-6.65
8,COc1ccccc1S(=O)(=O)Nc1ccc2c(C(=O)O)c[nH]c2c1,-6.86
9,Cc1cc(C)cc(NS(=O)(=O)c2cc3c(c(C(=O)O)c2)OCCO3)c1,-5.38
10,CCn1cc(CNc2ccc(N(C)CCOC)cn2)cn1,-2.51
11,CCSc1ncc(-c2cc(C3CCC3)nc(N)c2C#N)cn1,9.11
12,CCn1nc(C)c2nc(C)nc(NCCc3ccccc3)c21,2.39
13,COCc1nc2cc3c(cc2c(=O)o1)OCCCO3,-7.11
14,Cc1nnc(CNC(=O)CC2CCc3ccccc32)o1 (stereo not drawn),25.8
15,CCN1CCN(S(=O)(=O)c2cc(Cl)c(Cl)cc2C)CC1,-2.4
16,O=C(NCc1ccccc1CO)Nc1ccc2c(c1)CCO2,7.29
17,CCc1ccc(CN2CCCn3c(nc(Cn4ccnc4)cc3=O)C2)o1,-0.664
18,CCc1ncnc2c1CCN(CCOC)CC2,-9.59
19,Cc1ccc(C(C)NC(=O)Nc2ccccc2CN2CCOCC2)o1 (stereo not drawn),-11.2
20,Cc1noc(C)c1CN1CCN(C(=O)CCn2cncn2)CC1,-6
21,COc1ccc(O[C@H]2COCCN(Cc3cccc4c3OCO4)C2)cc1,3.63
22,Cc1cccc(C(=O)Nc2c(C(=O)N(C)C)nn(C)c2C)c1,-3.25
23,CSCC1CCCN1CCc1ccncc1 (stereo not drawn),27.5

row,SMILES,cytotoxicity at 70.5 h [%]
1,Cc1cc(NCCc2cnccn2)nc(-c2ccccc2O)n1,-12.4
2,FC(F)(F)C1CCCn2c(CNCc3ccsc3)nnc21 (stereo not drawn),-9.55
3,CC1CCC(NC(=O)Nc2ccc(CC(=O)N(C)C)cc2)CC1 (stereo not drawn),-5.4
4,CC(C)C1CN(C(=O)c2cc(F)cc3[nH]cnc23)CCS1 (stereo not drawn),-2.35
5,CC(C)Cc1ncc2c(n1)CN(c1nc(N(C)C)nc3c1CCCC3)C2,-0.189
6,Cc1occc1C(=O)Nc1cc(N2CCNC2=O)ccc1Cl,6.66
7,COC(C(=O)N1CCN(c2cccc(Cl)c2)C(=O)C1)c1ccccc1 (stereo not drawn),-7.64
8,O=C(NCc1cccs1)[C@@H]1CC[C@@H]2[C@@H](CCN2CC2CCC2)O1,-17.4
9,Fc1ccccc1OCCc1cc(C2CCNC2)n[nH]1 (stereo not drawn),-4.09
10,CC(=O)N1CCN(CCNC(=O)NC(C)Cn2ccnc2)CC1 (stereo not drawn),-2.74
11,NC(=O)c1cccnc1N1CCN(c2ncnc3c2CCNC3)CC1,-1.91
12,CC(CS(C)(=O)=O)N(C(=O)c1ccc(Cl)s1)C1CC1 (stereo not drawn),-9.46
13,Cc1cc(C)n(CC2CCCCN2Cc2cscn2)n1 (stereo not drawn),-13.4
14,Cc1csc(CCNC(=O)N2CCC(NC(=O)OC(C)(C)C)CC2)n1,-11.5
15,CC(C)CC(=O)N1CC[C@@H]2CN(CC(=O)N(C)C)S(=O)(=O)[C@@H]2CC1,1.05
16,CC(=O)N1CCc2nc(C3CCN(C(=O)c4ccccc4)C3)ncc2C1 (stereo not drawn),0.561
17,CCNC(=O)NC1CN(Cc2ccccc2N(C)C)C[C@@H]1OC (stereo partly drawn),5.63
18,Cc1nc(CN2CCN(Cc3cc4n(n3)CCNC4)CC2)cs1,22.5
19,Cn1cc(CN2CCCC23CCN(C(=O)c2ccccn2)CC3)cn1,18.2
20,COc1ccc(CCN)cc1-c1ccc(C(N)=O)cc1,-6.83
21,O=C1CCCN1Cc1ncn2c1CN(C(=O)NC1CCCC1)CCC2,5.73
22,c1csc(-c2noc(C3CCCNC3)n2)c1 (stereo not drawn),-16.5
23,CCNC(=O)NC1CCCN(c2ccc(C)cc2)C1=O (stereo not drawn),0.44

row,SMILES,cytotoxicity at 70.5 h [%]
1,Cn1cc(C(=O)N2CCN(Cc3ccccn3)CC2)ccc1=O,19.1
2,Cn1cc(CCC(=O)NS(=O)(=O)N2CCCc3ccccc32)cn1,-8.12
3,O=C(Nc1cc(-c2ccncc2)no1)C1CC1,-10.1
4,CC(C)(C)C(=O)N1CCN(CCOc2cccc(C#N)c2)CC1,-5.91
5,CCn1cnnc1CNC(=O)N(C)Cc1ccc2c(c1)OCCO2,6.83
6,COc1cccc(CN2CCCC3(CCN(C(=O)[C@H]4CCCO4)C3)C2)c1 (stereo partly drawn),-2.99
7,COc1ccc(N2CCC(N(C)C(=O)Nc3ccncc3)CC2)cc1,0.31
8,Oc1ccc2oc3c(c2c1CN1CCOCC1)CCCC3,-8.06
9,Fc1cccc(-n2ccc(CN3CCCC3Cn3cncn3)n2)c1 (stereo not drawn),-9.03
10,CCN(C)C[C@@H]1CN(S(=O)(=O)c2cccc(Cl)c2)C[C@@H]1CO,2.35
11,COc1cccc2c1ccn2CCNC(=O)CCNc1ncccn1,-18
12,O=C(c1coc2ccccc12)N1CCS(=O)(=O)CC1,-5.47
13,COCC(=O)N1CC[C@@H]2O[C@@H](COCC3CCOCC3)CC[C@@H]21,12.6
14,CC(C)CCN(C)Cc1nc2c(cnn2C)c(=O)[nH]1,-5.91
15,COc1cccc2c1OCC(C(=O)NCc1c(C)noc1C)C2 (stereo not drawn),-7.18
16,Cc1nn(C)c(C)c1CCC(=O)NCc1cccnc1OC1CCCC1,-3.92
17,Cn1ccnc1CNC(=O)Nc1ccc(OC2CCC2)c(F)c1,20
18,CCC[C@@H]1CN(Cc2c[nH]nc2-c2ccc(F)cc2)C[C@H]1NS(C)(=O)=O,-3.18
19,CC(C)c1ncncc1C(=O)N1CCN(Cc2cccnc2)CC1,-6.82
20,Cc1cccc2c1C(=O)NC(c1cnc(C3CCC3)s1)N2 (stereo not drawn),-21.1
21,CN(CCOc1ccccc1Cl)S(=O)(=O)N1CCOCC1,-7.93
22,CCNc1cc2c(nn1)CCN(C(=O)c1cccc3c1OCCO3)C2,-9.67
23,NC(=O)c1ccc(NC2CCOC3(CCCC3)C2)nn1 (stereo not drawn),17.2

row,SMILES,cytotoxicity at 70.5 h [%]
1,CC(=O)N(Cc1noc(C)n1)C1CCN(Cc2ccccc2C#N)C1 (stereo not drawn),-5.45
2,CC(c1cccc(-c2nccn2CCc2ccccn2)c1)N(C)C (stereo not drawn),-7.37
3,COc1c(Br)c(C(=O)NC2CC2)nn1C,0.124
4,Cc1ccccc1C(C)NC(=O)Cc1c(C)nc2cc(=O)[nH]n2c1C (stereo not drawn),-10.1
5,O=C(NCCS(=O)(=O)N1CCN(c2ncccn2)CC1)c1ccccc1,-7.9
6,O=C(c1ccc[nH]1)N1CCN(CC2CCOc3ccccc3C2)CC1 (stereo not drawn),16.4
7,O=C(Nc1cn[nH]c1)NC1CCN(c2ccccc2OC(F)F)C1 (stereo not drawn),2.39
8,CCc1cc(NC2CCS(=O)(=O)C2)nc(N2CCCCC2)n1 (stereo not drawn),-3.25
9,CC(C)OCc1nn(C)c2c1CCN(Cc1ccco1)C2,-7.18
10,COc1ncc(NCc2csc(-c3ccco3)n2)cc1C(N)=O,-11
11,COC(=O)CNC(=O)CCCn1cnc2ccccc2c1=O,-1.4
12,NCCCC(=O)NCC1(O)CCCN(c2ccnc3cccnc23)C1 (stereo not drawn),-4.51
13,Cc1nccn1C1CCCN(C(=O)c2ccc3c(c2)CCC3)C1 (stereo not drawn),0.881
14,CCCOC1CCCN(c2nc(CC)nc3c2cnn3C)C1 (stereo not drawn),-10.7
15,C1CCC(NCCN2CCOCC2)C1,16.9
16,Cc1nn(C)cc1-c1cc(C(F)(F)F)nc(NC2CCN(C)CC2)n1,-4.19
17,CC(C)NC(=O)[C@H]1C[C@H]2NCCO[C@@H]2C1,3.88
18,O=C(C1CCOC1)N1C[C@H]2CN(Cc3ccncc3)C(=O)[C@H]2C1 (stereo partly drawn),-9.99
19,COc1cc(C2CC(=O)Nc3c2nc2n3CCCC2)cc2c1OCO2 (stereo not drawn),-12
20,CO[C@H]1CN(C)S(=O)(=O)[C@@]12CCN(Cc1ccccc1)C2,-3.43
21,CCn1ncnc1CN1CCc2[nH]cnc2C1Cc1ccccc1 (stereo not drawn),-5.67
22,CCOCC1(CNCc2cc(O)c3cc(C)ccc3n2)CC1,-1.7
23,Cc1ccc(CSc2nc(N)cc(NCCC(N)=O)n2)cc1,-0.193

row,SMILES,cytotoxicity at 70.5 h [%]
1,CC(NC(=O)Cn1cccn1)c1ccc2c(c1)OCCCO2 (stereo not drawn),52.1
2,Cc1nc(C)n(CC2CCCN(CCCOc3ccccc3)C2)n1 (stereo not drawn),-0.0538
3,CC(O)CN(C)S(=O)(=O)c1ccc(C#N)cc1F (stereo not drawn),-2.23
4,c1ccc(NC[C@@H]2CCC[C@@H]3CN(c4ncccn4)C[C@@H]32)nc1,-13.7
5,Cc1ccc(C(=O)N2CCO[C@H]3[C@H](OCc4ccccn4)CC[C@@H]32)o1,-3.92
6,NC(=O)c1ccc(NC(=O)Cn2cc(I)cn2)cc1,-13.1
7,CC(C)c1nnc2n1CC(CNCc1nc3ccccc3s1)CC2 (stereo not drawn),21.9
8,CCc1nc(N2CCC3(CC2)[C@H](O)C[C@@H]3O)ncc1C,-5.93
9,Cc1nc(-c2nnc[nH]2)sc1C(=O)N1CCCC(C(F)(F)F)C1 (stereo not drawn),-4.51
10,CCCN1CCN(Cc2cccc(OCC(N)=O)c2)[C@H]2CS(=O)(=O)C[C@H]21,0.755
11,CN1CCCC1(CCCc1cccnc1)C(=O)NCc1nccn1C (stereo not drawn),-1.26
12,O=C(c1ccsc1)N1CCc2c(COCc3ccncc3)cncc2C1,-9.93
13,Cc1cc2ccccc2n1CCC(=O)N1CCCC(O)(CN(C)C)CC1 (stereo not drawn),-0.891
14,CCOc1ncccc1NC(=O)NC1CCCN(S(C)(=O)=O)C1 (stereo not drawn),-0.949
15,COc1ccc2nnc(CCCC(=O)NCCC3=CCCCC3)n2n1,-4.24
16,O=C(CN1CCCC1c1nc2cc(F)ccc2[nH]1)NCc1ccccn1 (stereo not drawn),-3.28
17,CCCNC(=O)c1sccc1N(C)S(=O)(=O)c1ccc(Cl)cc1,20.9
18,COCCN(Cc1cnn(C)c1)c1nc(C)nc2sccc12,4.75
19,Cc1n[nH]c(C)c1CC(=O)N1CC[C@@](C)(O)[C@H](Oc2ccccc2)C1,-6.16
20,Cc1noc([C@H]2C[C@@H]3CCN(c4nnc(C)s4)C[C@H]3O2)n1,-8.11
21,CS(=O)(=O)N1CCOCC2(CN(Cc3ccco3)CCO2)C1 (stereo not drawn),-3.82
